Assay results taken from ChEMBL document CHEMBL1201862, “PubChem BioAssay data set” (2004).
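In this assay, cells in 96-well plates receive the compound at five concentrations for 48 hours. Endpoints are linearly interpolated between the surrounding concentrations. At the GI50, growth is halved.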 Activity calls are given as the source filed them. No stated cut-off is given here; in the data, active = GI50 up to about 1.1 µM and inactive = higher.

Tests used:
Assay in all cases: inhibition of tumour cell growth, NCI panel, 48 h
SF-539 = tested on: SF-539
SF-295 = tested on: SF-295
NCI-H226 = tested on: NCI-H226
A498 = tested on: A498
ACHN = tested on: ACHN
OVCAR-8 = tested on: OVCAR-8
SK-MEL-2 = tested on: SK-MEL-2
UO-31 = tested on: UO-31
MDA-N = tested on: MDA-N
K562 = tested on: K562
RXF 393 = tested on: RXF 393
NCI-H23 = tested on: NCI-H23
OVCAR-5 = tested on: OVCAR-5
SK-MEL-28 = tested on: SK-MEL-28
CCRF-CEM = tested on: CCRF-CEM
PC-3 = tested on: PC-3
786-0 = tested on: 786-0
DU-145 = tested on: DU-145
IGROV-1 = tested on: IGROV-1
LOX IMVI = tested on: LOX IMVI
RPMI-8226 = tested on: RPMI-8226
HCT-15 = tested on: HCT-15
UACC-62 = tested on: UACC-62
MOLT-4 = tested on: MOLT-4
NCI/ADR-RES = tested on: NCI/ADR-RES
HOP-62 = tested on: HOP-62
MCF7 = tested on: MCF7
SK-OV-3 = tested on: SK-OV-3
SK-MEL-5 = tested on: SK-MEL-5
UACC-257 = tested on: UACC-257
SNB-19 = tested on: SNB-19
SNB-75 = tested on: SNB-75
M14 = tested on: M14
NCI-H460 = tested on: NCI-H460
SW-620 = tested on: SW-620
CAKI-1 = tested on: CAKI-1
COLO 205 = tested on: COLO 205
EKVX = tested on: EKVX
U-251 = tested on: U-251
KM12 = tested on: KM12
MDA-MB-435 = tested on: MDA-MB-435
HT-29 = tested on: HT-29
Malme-3M = tested on: Malme-3M
SF-268 = tested on: SF-268
SR = tested on: SR
Hs-578T = tested on: Hs-578T
BT-549 = tested on: BT-549
TK-10 = tested on: TK-10
HCT-116 = tested on: HCT-116
MDA-MB-231 = tested on: MDA-MB-231
HL-60 = tested on: HL-60
OVCAR-3 = tested on: OVCAR-3
SN12C = tested on: SN12C

`O=C(CN1CCOCC1)c1ccc2c(c1)oc(=O)n2CCN1CCCCC1` was tested, and the GI50 (SF-539) was > 100 µM (inactive), the GI50 (SF-295) was > 100 µM (inactive) and the GI50 (NCI-H226) was > 100 µM (inactive). For the same compound, the GI50 (A498) was > 100 µM (inactive), the GI50 (ACHN) was > 100 µM (inactive) and the GI50 (OVCAR-8) was > 100 µM (inactive). The GI50 (SK-MEL-2) was > 100 µM (inactive), the GI50 (UO-31) was > 100 µM (inactive) and the GI50 (MDA-N) was > 100 µM (inactive). The GI50 (K562) was > 100 µM (inactive), the GI50 (RXF 393) was > 100 µM (inactive) and the GI50 (NCI-H23) was > 100 µM (inactive). The GI50 (OVCAR-5) was > 100 µM (inactive), the GI50 (SK-MEL-28) was > 100 µM (inactive) and the GI50 (CCRF-CEM) was > 100 µM (inactive). For the same compound, the GI50 (PC-3) was > 100 µM (inactive), the GI50 (786-0) was > 100 µM (inactive) and the GI50 (DU-145) was > 100 µM (inactive). For the same compound, the GI50 (IGROV-1) was > 100 µM (inactive), the GI50 (LOX IMVI) was > 100 µM (inactive) and the GI50 (RPMI-8226) was > 100 µM (inactive). For the same compound, the GI50 (HCT-15) was greater than 100 µM, the GI50 (UACC-62) was > 100 µM (inactive) and the GI50 (MOLT-4) was > 100 µM (inactive). The GI50 (NCI/ADR-RES) was > 100 µM (inactive), the GI50 (HOP-62) was > 100 µM (inactive) and the GI50 (MCF7) was > 100 µM (inactive). The GI50 (SK-OV-3) was > 100 µM (inactive), the GI50 (SK-MEL-5) was > 100 µM (inactive) and the GI50 (UACC-257) was > 100 µM (inactive). The GI50 (SNB-19) was > 100 µM (inactive), the GI50 (SNB-75) was 0.179 µM (active) and the GI50 (M14) was > 100 µM (inactive). The GI50 (NCI-H460) was > 100 µM (inactive), the GI50 (SW-620) was > 100 µM (inactive) and the GI50 (CAKI-1) was > 100 µM (inactive). For the same compound, the GI50 (COLO 205) was > 100 µM (inactive), the GI50 (EKVX) was 82.2 µM (inactive) and the GI50 (U-251) was > 100 µM (inactive). For the same compound, the GI50 (KM12) was > 100 µM (inactive), the GI50 (MDA-MB-435) was > 100 µM (inactive) and the GI50 (HT-29) was > 100 µM (inactive). For the same compound, the GI50 (Malme-3M) was > 100 µM (inactive), the GI50 (SF-268) was 48.3 µM (inactive) and the GI50 (SR) was > 100 µM (inactive). For the same compound, the GI50 (Hs-578T) was 7.8 µM (inactive), the GI50 (BT-549) was > 100 µM (inactive) and the GI50 (TK-10) was > 100 µM (inactive). The GI50 (HCT-116) was > 100 µM (inactive), the GI50 (MDA-MB-231) was > 100 µM (inactive) and the GI50 (HL-60) was > 100 µM (inactive). The GI50 (OVCAR-3) was > 100 µM (inactive) and the GI50 (SN12C) was > 100 µM (inactive).
